Molecular target: human recombinant LRRK2 protein (Homo sapiens, UniProt Q5S007)
Assay: LRRK2 kinase activity assay (ADP-Glo, LRRKtide peptide)
Assay type: biochemical
Details: human recombinant LRRK2 wt, LRRKtide peptide and ATP, 1 h at 37° C.
Outline: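 Human recombinant LRRK2 reacted with LRRKtide peptide and ATP for 1 h at 37 °C in the presence of compound. ADP formed measured by ADP-Glo luminescence; IC50 fitted from 10 concentrations run in duplicate.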

Sequence of human recombinant LRRK2 protein (Q5S007 whole entry): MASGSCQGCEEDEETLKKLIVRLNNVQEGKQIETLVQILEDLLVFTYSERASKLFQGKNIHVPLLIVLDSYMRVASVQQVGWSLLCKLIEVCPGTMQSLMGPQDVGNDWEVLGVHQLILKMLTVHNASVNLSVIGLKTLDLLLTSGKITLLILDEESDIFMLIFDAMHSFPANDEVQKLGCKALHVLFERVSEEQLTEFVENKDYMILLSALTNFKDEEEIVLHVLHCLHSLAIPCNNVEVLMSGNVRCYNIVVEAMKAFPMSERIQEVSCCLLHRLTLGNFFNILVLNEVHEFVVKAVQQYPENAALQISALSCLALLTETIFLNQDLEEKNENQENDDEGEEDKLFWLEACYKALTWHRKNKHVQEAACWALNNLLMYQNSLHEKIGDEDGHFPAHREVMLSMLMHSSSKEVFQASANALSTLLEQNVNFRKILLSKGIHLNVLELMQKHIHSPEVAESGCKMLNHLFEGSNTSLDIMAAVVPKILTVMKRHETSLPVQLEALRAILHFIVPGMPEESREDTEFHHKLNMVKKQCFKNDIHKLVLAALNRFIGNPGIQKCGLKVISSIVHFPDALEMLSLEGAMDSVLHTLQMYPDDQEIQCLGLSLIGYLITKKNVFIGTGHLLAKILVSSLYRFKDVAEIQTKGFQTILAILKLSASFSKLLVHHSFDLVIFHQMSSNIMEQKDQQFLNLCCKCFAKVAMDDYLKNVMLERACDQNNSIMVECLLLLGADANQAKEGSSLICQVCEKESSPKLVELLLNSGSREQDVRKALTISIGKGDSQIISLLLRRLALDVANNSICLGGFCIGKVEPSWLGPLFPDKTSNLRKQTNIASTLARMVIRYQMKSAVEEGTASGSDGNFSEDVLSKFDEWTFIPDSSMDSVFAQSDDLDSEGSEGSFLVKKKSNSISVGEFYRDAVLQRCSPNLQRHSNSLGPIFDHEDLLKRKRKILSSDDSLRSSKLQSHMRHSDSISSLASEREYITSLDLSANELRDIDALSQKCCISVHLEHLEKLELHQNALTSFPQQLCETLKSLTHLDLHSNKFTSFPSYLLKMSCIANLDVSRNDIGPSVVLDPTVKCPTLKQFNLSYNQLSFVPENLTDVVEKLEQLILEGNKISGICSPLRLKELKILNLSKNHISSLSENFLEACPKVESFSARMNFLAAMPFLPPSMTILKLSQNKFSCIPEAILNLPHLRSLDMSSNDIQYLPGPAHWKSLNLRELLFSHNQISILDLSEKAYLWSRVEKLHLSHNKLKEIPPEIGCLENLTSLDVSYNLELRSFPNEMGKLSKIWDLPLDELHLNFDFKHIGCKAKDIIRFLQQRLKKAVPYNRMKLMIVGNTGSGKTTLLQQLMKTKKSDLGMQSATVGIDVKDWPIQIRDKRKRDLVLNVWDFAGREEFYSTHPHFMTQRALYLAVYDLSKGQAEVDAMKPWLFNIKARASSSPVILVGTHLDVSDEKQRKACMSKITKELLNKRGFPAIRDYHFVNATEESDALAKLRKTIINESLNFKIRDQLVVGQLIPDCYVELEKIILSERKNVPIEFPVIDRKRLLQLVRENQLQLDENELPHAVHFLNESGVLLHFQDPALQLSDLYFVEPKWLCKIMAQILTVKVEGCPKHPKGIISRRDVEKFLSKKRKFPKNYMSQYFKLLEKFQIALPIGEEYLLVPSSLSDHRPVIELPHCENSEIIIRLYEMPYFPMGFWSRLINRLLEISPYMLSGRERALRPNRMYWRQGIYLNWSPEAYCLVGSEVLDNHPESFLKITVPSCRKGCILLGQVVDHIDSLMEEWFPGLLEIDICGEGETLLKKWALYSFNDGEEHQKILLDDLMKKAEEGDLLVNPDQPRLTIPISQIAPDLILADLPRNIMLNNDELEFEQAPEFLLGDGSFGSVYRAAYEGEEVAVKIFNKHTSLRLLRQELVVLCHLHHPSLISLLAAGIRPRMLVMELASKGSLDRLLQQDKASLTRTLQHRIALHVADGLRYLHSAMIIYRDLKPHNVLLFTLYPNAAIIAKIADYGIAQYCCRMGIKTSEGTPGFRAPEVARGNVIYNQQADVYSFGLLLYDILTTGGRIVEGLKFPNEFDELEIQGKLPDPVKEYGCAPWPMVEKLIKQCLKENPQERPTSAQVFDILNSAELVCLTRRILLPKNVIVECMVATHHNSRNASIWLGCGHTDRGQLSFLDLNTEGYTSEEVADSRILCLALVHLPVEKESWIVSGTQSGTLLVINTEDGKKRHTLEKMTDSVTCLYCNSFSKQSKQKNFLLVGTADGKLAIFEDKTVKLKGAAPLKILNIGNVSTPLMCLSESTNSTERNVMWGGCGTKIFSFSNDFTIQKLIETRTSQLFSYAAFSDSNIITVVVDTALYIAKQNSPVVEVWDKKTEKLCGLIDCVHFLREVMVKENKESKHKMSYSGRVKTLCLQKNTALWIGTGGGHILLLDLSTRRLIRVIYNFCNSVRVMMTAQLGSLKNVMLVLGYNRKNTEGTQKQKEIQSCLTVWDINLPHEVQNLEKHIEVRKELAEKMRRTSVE

| IC50 [nM] | SMILES |
| --- | --- |
| < 10 | C[C@H]1CCNCCOc2cc(cc(N3CCOCC3)c2)-c2n[nH]c3ccc(cc23)O1 [Example 175, (13S)-13-methyl-4-(morpholin-4-yl)-7,14-dioxa-10,19,20-triazatetracyclo[13.5.2.1^2,6.0^18,21]tricosa-1(20),2(23),3,5,15,17,21-heptaene] |
| < 100 | C[C@@H]1NC(=O)COc2cccc(c2)-c2n[nH]c3ccc(cc23)OC[C@H]1F [Example 183, (11S,12S)-12-fluoro-11-methyl-7,14-dioxa-10,19,20-triazatetracyclo[13.5.2.1^2,6.0^18,21]tricosa-1(20),2,4,6(23),15,17,21-heptaen-9-one] |
| < 100 | C[C@@H]1NCCOc2cccc(c2)-c2n[nH]c3ccc(cc23)OC[C@H]1F [Example 184, (11S,12S)-12-fluoro-11-methyl-7,14-dioxa-10,19,20-triazatetracyclo[13.5.2.1^2,6.0^18,21]tricosa-1(20),2,4,6(23),15,17,21-heptaene] |
| < 10 | O=C1COc2cc(cc(C(F)(F)F)c2)-c2n[nH]c3ccc(cc23)OCCCN1 [Example 185, 4-(trifluoromethyl)-7,14-dioxa-10,19,20-triazatetracyclo [13.5.2.1^2,6.0^18,21]tricosa-1(20),2,4,6(23),15,17,21-heptaen-9-one] |
| < 10 | FC(F)(F)c1cc2cc(c1)-c1n[nH]c3ccc(cc13)OCCCNCCO2 [Example 186, 4-(trifluoromethyl)-7,14-dioxa-10,19,20-triazatetracyclo [13.5.2.1^2,6.0^18,21]tricosa-1(20),2,4,6(23),15,17,21-heptaene] |
| < 100 | CN1CCCOc2ccc3[nH]nc(c3c2)-c2cc(C#N)cc(c2)OCC1=O [Example 191, 10-methyl-9-oxo-7,14-dioxa-10,19,20-triazatetracyclo [13.5.2.1^2,6.0^18,21]tricosa-1(20),2,4,6(23),15,17,21-heptaene-4-carbonitrile] |
| < 1000 | O=C1COc2cccc(c2)-c2n[nH]c3ccc(cc23)OCCN1 [Example 192, 7,13-dioxa-10,18,19-triazatetracyclo[12.5.2.1^2,6.0^17,20]docosa-1(19),2(22),3,5,14(21),15,17(20)-heptaen-9-one] |
| < 1000 | CN1CCCOc2ccc3[nH]nc(c3c2)-c2cc(ccn2)OCC1=O [Example 194, 10-methyl-7,14-dioxa-3,10,19,20-tetraazatetracyclo[13.5.2.1^2,6.0^18,21]tricosa-1(20),2(23),3,5,15(22),16,18(21)-heptaen-9-one] |
| < 10 | O=C1COc2cc(F)cc(c2)-c2n[nH]c3ccc(cc23)OCCCN1 [Example 195, 4-fluoro-7,14-dioxa-10,19,20-triazatetracyclo[13.5.2.1^2,6.0^18,21]tricosa-1(20),2(23),3,5,15(22),16,18(21)-heptaen-9-one] |
| < 100 | CN1CCCOc2ccc3[nH]nc(c3c2)-c2cncc(c2)OC(C)(C)C1=O [Example 197, 8,8,10-trimethyl-7,14-dioxa-4,10,19,20-tetraazatetracyclo[13.5.2.1^2,6.0^18,21]tricosa-1(20),2(23),3,5,15(22),16,18(21)-heptaen-9-one] |
| < 1000 | CN1CCCOc2ccc3[nH]nc(c3c2)-c2cncc(c2)OCCC1=O [Example 198, 11-methyl-7,15-dioxa-4,11,20,21-tetraazatetracyclo [14.5.2.1^2,6.0^19,22] tetracosa-1(21),2,4,6(24),16,18,22-heptaen-10-one] |
| < 100 | O=C1COc2cncc(c2)-c2n[nH]c3ccc(cc23)OCCN1 [Example 199, 7,13-dioxa-4,10,18,19-tetraazatetracyclo[12.5.2.1^2,6.0^17,20] docosa-1(19),2(22),3,5,14(21),15,17(20)-heptaen-9-one] |
| < 10 | CC1(C)Oc2cncc(c2)-c2n[nH]c3ccc(cc23)OCCCNC1=O [Example 201, 8,8-dimethyl-7,14-dioxa-4,10,19,20-tetraazatetracyclo [13.5.2.1^2,6.0^18,21]tricosa-1(20),2(23),3,5,15,17,21-heptaen-9-one] |
| < 10 | O=C1COc2cncc(c2)-c2n[nH]c3ccc(cc23)OCC(F)(F)CN1 [Example 202, 12,12-difluoro-7,14-dioxa-4,10,19,20-tetraazatetracyclo [13.5.2.1^2,6.0^18,21]tricosa-1(20),2,4,6(23),15,17,21-heptaen-9-one] |
| < 10 | O=C1COc2cc(Br)cc(c2)-c2n[nH]c3ccc(cc23)OCCCN1 [Example 203, 4-bromo-7,14-dioxa-10,19,20-triazatetracyclo[13.5.2.1^2,6.0^18,21]tricosa-1(20),2(23),3,5,15,17,21-heptaen-9-one] |

The remaining lines, values behind:

| SMILES | IC50 [nM] |
| --- | --- |
| C[C@@H]1CCNC(=O)COc2cc(cc(N3CCOCC3)c2)-c2n[nH]c3ccc(cc23)O1 [Example 172, (13R)-13-methyl-4-(morpholin-4-yl)-7,14-dioxa-10,19,20-triazatetracyclo[13.5.2.1^2,6.0^18,21]tricosa-1(20),2(23),3,5,15,17,21-heptaen-9-one] | < 10 |
| C[C@@H]1CCNCCOc2cc(cc(N3CCOCC3)c2)-c2n[nH]c3ccc(cc23)O1 [Example 173, (13R)-13-methyl-4-(morpholin-4-yl)-7,14-dioxa-10,19,20-triazatetracyclo[13.5.2.1^2,6.0^18,21]tricosa-1(20),2(23),3,5,15,17,21-heptaene] | < 10 |
| C[C@H]1CCNC(=O)COc2cc(cc(N3CCOCC3)c2)-c2n[nH]c3ccc(cc23)O1 [Example 174, (13S)-13-methyl-4-(morpholin-4-yl)-7,14-dioxa-10,19,20-triazatetracyclo[13.5.2.1^2,6.0^18,21]tricosa-1(20),2(23),3,5,15,17,21-heptaen-9-one] | < 10 |
| CC1Oc2cc(cc(N3CCOCC3)c2)-c2n[nH]c3ccc(cc23)OCCCNC1=O (centres unmarked) [Example 176, 8-methyl-4-(morpholin-4-yl)-7,14-dioxa-10,19,20-triazatetracyclo[13.5.2.1^2,6.0^18,21]tricosa-1(20),2,4,6(23),15,17,21-heptaen-9-one] | < 10 |
| C[C@@H]1CCNC(=O)CCn2cc(cn2)-c2n[nH]c3ccc(cc23)O1 [Example 179, (12R)-12-methyl-13-oxa-4,5,9,18,19-pentaazatetracyclo [12.5.2.1^2,5.0^17,20] docosa-1(19),2(22),3,14(21),15,17(20)-hexaen-8-one] | < 10 |
| C[C@@H]1CCNCCCn2cc(cn2)-c2n[nH]c3ccc(cc23)O1 [Example 180, (12R)-12-methyl-13-oxa-4,5,9,18,19-pentaazatetracyclo [12.5.2.1^2,5.0^17,20]docosa-1(19),2(22),3,14(21),15,17(20)-hexaene] | < 100 |
| O=C1CCn2ncc(n2)-c2n[nH]c3ccc(cc23)OCCCN1 [Example 181, 13-oxa-4,5,9,18,19,22-hexaazatetracyclo[12.5.2.1^2,5.0^17,20] docosa-1(19),2(22),3,14(21),15,17(20)-hexaen-8-one] | < 10 |
| c1cc2[nH]nc3c2cc1OCCCNCCCn1ncc-3n1 [Example 182, 13-oxa-4,5,9,18,19,22-hexaazatetracyclo[12.5.2.1^2,5.0^17,20] docosa-1(19),2(22),3,14(21),15,17(20)-hexaene] | < 10 |
| Cc1cc2[nH]nc3c2cc1OCCCNC(=O)COc1cncc-3c1 [Example 187, 16-methyl-7,14-dioxa-4,10,19,20-tetraazatetracyclo[13.5.2.1^2,6.0^18,21]tricosa-1(20),2(23),3,5,15(22),16,18(21)-heptaen-9-one] | < 100 |
| Cc1cc2[nH]nc3c2cc1OCCCNCCOc1cncc-3c1 [Example 188, 16-methyl-7,14-dioxa-4,10,19,20-tetraazatetracyclo[13.5.2.1^2,6.0^18,21]tricosa-1(20),2(23),3,5,15(22),16,18(21)-heptaene] | < 10 |
| CN1CCCNc2ccc3[nH]nc(c3c2)-c2cncc(c2)OCC1=O [Example 190, 10-methyl-7-oxa-4,10,14,19,20-pentaazatetracyclo[13.5.2.1^2,6.0^18,21]tricosa-1(20),2,4,6(23),15,17,21-heptaen-9-one] | < 100 |
| O=C1COc2cncc(n2)-c2n[nH]c3ccc(cc23)OCCCN1 [Example 193, 7,14-dioxa-4,10,19,20,23-pentaazatetracyclo[13.5.2.1^2,6.0^18,21]tricosa-1(20),2(23),3,5,15(22),16,18(21)-heptaen-9-one] | < 10 |
| O=C1COc2nccc(n2)-c2n[nH]c3ccc(cc23)OCCCN1 [Example 196, 7,14-dioxa-5,10,19,20,23-pentaazatetracyclo[13.5.2.1^2,6.0^18,21]tricosa-1(20),2(23),3,5,15(22),16,18(21)-heptaen-9-one] | < 10 |
| CN1CCCOc2ccc3[nH]nc(c3c2)-c2cc(cnc2F)OCC1=O [Example 200, 3-fluoro-10-methyl-7,14-dioxa-4,10,19,20-tetraazatetracyclo[13.5.2.1^2,6.0^18,21]tricosa-1(20),2,4,6(23),15(22),16,18(21)-heptaen-9-one] | < 1000 |
| O=C1COc2cc(cc(N3CCCCC3)c2)-c2n[nH]c3ccc(cc23)OCCCN1 [Example 204, 4-(piperidin-1-yl)-7,14-dioxa-10,19,20-triazatetracyclo [13.5.2.1^2,6.0^18,21]tricosa-1(20),2(23),3,5,15,17,21-heptaen-9-one] | < 10 |
| O=C1COc2cc(cc(N3CCCC3)c2)-c2n[nH]c3ccc(cc23)OCCCN1 [Example 205, 4-(pyrrolidin-1-yl)-7,14-dioxa-10,19,20-triazatetracyclo [13.5.2.1^2,6.0^18,21]tricosa-1(20),2(23),3,5,15,17,21-heptaen-9-one] | < 10 |
| O=C1COc2cc(cc(N3CCC(F)(F)C3)c2)-c2n[nH]c3ccc(cc23)OCCCN1 [Example 206, 4-(3,3-difluoropyrrolidin-1-yl)-7,14-dioxa-10,19,20-triazatetracyclo[13.5.2.1^2,6.0^18,21]tricosa-1(20),2(23),3,5,15,17,21-heptaen-9-one] | < 10 |
